# Reference: patent US20260306434A1, “VERY LONG CHAIN FATTY ACIDS FOR USE IN MINERALIZATION” (Epax Norway AS, priority 2023, published 2026)
# Assays:
# [1] = test system: hFOB 1.19 human foetal osteoblasts; assay: Fatty acid composition of hFOB cells (Ex. 4); type: cell-based; conditions: 2 μM; 7 days
# Procedure: Total lipids were extracted from homogenised tissue or sonicated extracts of cells (for Ex. 4) following the method previously described by Folch et al., For both skin tissue and whole-body analyses, pooled samples from each tank (n=10 per tank, n=30 per diet group) were analysed for lipid composition. For cells, three individual cell culture flasks per treatment group were analysed. The fatty acid composition was analysed using the method described by Mason and Waller.
# Methyl esters were separated and analysed in a GC (Hewlett Packard 6890; HP) with a split injector using an SGE BPX70 capillary column (length, 60 m; internal diameter, 0.25 mm; and film thickness, 0.25 um; SGE Analytical Science) flame ionsation detector, and HP chem Station software. Helium was used as the carrier gas, and both the injector and detector temperatures were 280° C. The oven temperature started at 50° C. for 1.2 min and then increased […] to 170° C. at a rate of 4° C./min, followed by 200° C. at a rate of 0.5° C./min, and finally 280° C. at a rate of 10° C./min. The individual fatty acid peaks were identified by comparing the retention times with validated standards; GLC reference 463 and 85 (Nu-chek Prep, Elysian, MN). The absolute amount of fatty acid per gram of tissue or cells was calculated using 23:0 methyl ester as an internal standard (IS). Unidentified peaks were not included in the total fatty acid calculation.
# The VLC-PUFA composition of cells and whole-body extracts was analysed using a Scion TQ 8300 GC-MS/MS with a split/splitless injector (splitless 1 min) with a Restek Rxi-5 ms capillary column (length, 30 m; internal diameter, 0.25 mm; and film thickness, […]). Hydrogen was used as the carrier gas, with split-injection and detector temperatures of 250° C. and 270° C., respectively. The oven temperature started at 90° C. for 1.5 min and was ramped up to 220° C. at a rate of 30° C./min, then 275° C. at a rate of 1.21° C./min, and finally 310° C. at a rate of 6.5° C./min. The instrument was run in MRM mode with 79.1-77.1 and 79-55.1 as transitions for VLC PUFAs and 143.1-55.1 for C23:0. The response factor for DHA (relative to C23:0) was calculated using standard solutions of known concentrations of DHA and C23:0. As no standards for VLC fatty acids were available for the VLC-PUFAs, the same response factor as for DHA was assumed and used to calculate concentrations of VLC-PUFAs.
# A human foetal osteoblast cell line (hFOB 1.19, ATCC, CRL-11372) was used in the experiments. Cells were cultured according to the manufacturer's instructions. Basal medium comprised a 1:1 mixture of Ham's F12 Medium Dulbecco's Modified Eagle's Medium with 2.5 mM L-glutamine (without phenol red) (Sigma-Aldrich, Darmstadt, Germany). Complete growth medium was prepared using 0.3 mg/mL G418 (Sigma-Aldrich, Darmstadt, Germany) supplemented with 10% foetal bovine serum (T7524, Sigma-Aldrich, Darmstadt, Germany). Cells were incubated at 34° C., with 5% C02 (In-Vitro Cell NU-8600E, NUAIRE, Minnesota, U.S.) and sub-cultured at approximately 80% confluency at a ratio of 1:4. Growth medium was renewed every 2-3 days. Cells cultured for differentiation were supplemented with osteogenic factors, ascorbic acid (100 μg/mL; A8960, Sigma-Aldrich, Darmstadt, Germany) and β-glycerophosphate (10 mM; G9422, Sigma-Aldrich, Darmstadt, Germany). Once the cells reached confluency, the temperature was increased to 37° C. to stop proliferation and induce differentiation. The osteogenic media was renewed every 2-3 days.
# Fatty acids were added to the growth media in the form of their sodium salts bound to bovine serum albumin (BSA, Sigma-Aldrich, Darmstadt, Germany; 2.7:1 molar ratio). The pH was adjusted to 7 using NH4OH. n-3 VLC-PUFA (the VLC-PUFA concentrate of Table 3.1, right column) and DHA (Sigma-Aldrich, Darmstadt, Germany) concentrates were prepared as 1 and 8 mM stocks, respectively, and were added to the media at concentrations of 1 and 2 μM. […]
# [2] = test system: primary Atlantic salmon keratocytes; assay: Cell migration of primary Atlantic salmon keratocytes from scales (Ex. 2); type: cell-based; conditions: 25 ng/mL; 24 h; vs control (P=0.0145)
# Procedure: In these cell culture experiments fatty acids were added to growth media in the form of their sodium salts bound to bovine serum albumin (BSA; 2.7:1 molar ratio). The pH was adjusted to 7 using NH4OH. DHA was purchased from Sigma (Sigma Aldrich, Darmstadt, Germany). The n-3 VLCPUFA 26:6 n-3 and VLC-Conc2 (Table 1.1) were both prepared as 1-mM stock solutions and DHA was prepared as an 8-mM stock solution. All fatty acid solutions were stored at −80° C.
# Growth medium (GM) was prepared as L-15 (11544436, Fischer Scientific) supplemented with 5% FBS (F2442, Sigma-Aldrich), 1% anti/anti (A5955, Sigma-Aldrich; 15240062 Fischer Scientific), and 1% HEPES (H0887, Sigma-Aldrich). The test substrates added were either 25 ng/mL fibroblast growth factor (FGF) (106096-93-9, Sigma-Aldrich), 10 μM VLCPUFA (26:6 n-3), or 20 μM VLCPUFA (26:6 n-3). Controls were left untreated. […]
# The day after isolation, all wells were inspected under a microscope to determine the migration potential of the scales. All scales with migration were counted to determine the immediate effect of the VLCPUFA on cell migration. […] The number of scales with cell migration was counted and divided by the number of attached scales to calculate the percentage of scales with cell migration, as attachment is a prerequisite for cell migration. […]
# For histology, five fish from each tank, giving a total of 15 fish per treatment, were analysed. […]
compound,measurement,setting,value
"CC/C=C\C/C=C\C/C=C\C/C=C\C/C=C\C/C=C\CCC(=O)O [DHA, docosahexaenoic acid]","14:0, mean",[1],38.3 μg/g sample
same,"16:0, mean",[1],648.5 μg/g sample
same,"16:2 n-6, mean",[1],52.5 μg/g sample
same,"17:0, mean",[1],12.5 μg/g sample
same,"18:0, mean",[1],315.8 μg/g sample
same,"18:1 n-7, mean",[1],135.0 μg/g sample
same,"18:1 n-9, mean",[1],554.6 μg/g sample
same,"18:2 n-6, mean",[1],40.6 μg/g sample
same,"18:3 n-6, mean",[1],11.5 μg/g sample
same,"20:0, mean",[1],10.1 μg/g sample
same,"20:1 n-9, mean",[1],16.2 μg/g sample
same,"20:1 n-11, mean",[1],7.1 μg/g sample
same,"20:2 n-6, mean",[1],18.8 μg/g sample
same,"20:3 n-6, mean",[1],20.6 μg/g sample
same,"20:4 n-3, mean",[1],8.8 μg/g sample
same,"20:4 n-6, mean",[1],106.7 μg/g sample
same,"20:5 n-3, mean",[1],19.3ab μg/g sample
same,"22:0, mean",[1],7.3 μg/g sample
same,"22:4 n-6, mean",[1],13.7 μg/g sample
same,"22:5 n-3, mean",[1],26.2 μg/g sample
same,"24:1 n-9, mean",[1],3.9 μg/g sample
same,"24:5 n-3, mean",[1],76.5 μg/g sample
same,"24:6 n-3, mean",[1],56.5 μg/g sample
same,"26:5 n-3, mean",[1],1.7ab μg/g sample
same,"26:6 n-3, mean",[1],3.3ab μg/g sample
same,"28:8 n-3, mean",[1],0.0a μg/g sample
same,"SUM EPA/DHA, mean",[1],115.6b μg/g sample
same,"SUM FA, mean",[1],2670.3 μg/g sample
same,"Sum of MUFAs, mean",[1],871.5 μg/g sample
same,"Sum of SFAs, mean",[1],1045.0 μg/g sample
same,"Sum of n-3 PUFAs, mean",[1],164.0ab μg/g sample
same,"Sum of n-6 PUFAs, mean",[1],226.2 μg/g sample
same,"Sum others, mean",[1],168.3 μg/g sample
fibroblast growth factor [FGF],scales with cell migration,[2],significant difference
